In one test the target is HLA-A*02:01 (Homo sapiens, UniProt P04439, D140Y/D185E/D98H/E176V/E277Q/G131W/G231S/I119V/I121R/I166T/I218V/L300P/L318F/N151K/N90K/P208A/P217A/Q86G/Q94H/R138H/R169H/T345S). Put plainly: MHC binding assay (UV-ligand exchange, β2m ELISA, peptide exchange yield). The conditions noted are these: binding to HLA-A*02:01 ranged by peptide exchange yield (UV-ligand exchange, β2m ELISA). The text has this: Candidate peptides for T cell based therapies according to the present invention were further tested for their MHC binding capacity (affinity). The individual peptide-MHC complexes were produced by UV-ligand exchange, where a UV-sensitive peptide is cleaved upon UV-irradiation, and exchanged with the peptide of interest as analyzed. Only peptide candidates that can effectively bind and stabilize the peptide-receptive MHC molecules prevent dissociation of the MHC complexes. To determine the yield of the exchange reaction, an ELISA was performed based on the detection of the light chain (β2 m) of stabilized MHC complexes. The assay was performed as generally described in Rodenko et al. (Rodenko et al., 2006).
96 well MAXISorp plates (NUNC) were coated over night with 2 μg/ml streptavidin in PBS at room temperature, washed 4× and blocked forth at 37° C. in 2% BSA containing blocking buffer. Refolded HLA-A*02:01/MLA-001 monomers served as standards, covering the range of 15-500 ng/ml. Peptide-MHC monomers of the UV-exchange reaction were diluted 100 fold in blocking buffer. Samples were incubated for 1 h at 37° C., washed four times, incubated with 2 ug/ml HRP conjugated anti-β2 m for 1 h at 37° C., washed again and detected with TMB solution that is stopped with […]. Absorption was measured at 450 nm. Candidate peptides that show a high exchange yield (preferably higher than 50%, most preferred higher than 75%) are generally preferred for a generation and production of antibodies or fragments thereof, and/or T cell receptors or fragments thereof, as they show sufficient avidity to the MHC molecules and prevent dissociation of the MHC complexes.
(ELISA stands for enzyme-linked immunosorbent assay.)

Test [1] has as its system CD8+ T cells from healthy HLA-A*02 donors. Put plainly: In vitro immunogenicity: priming of CD8+ T cells with aAPCs loaded with peptide/MHC complexes and anti-CD28, pMHC multimer readout. The format is cell-based, human. The following applies: for Wells positive [%]: HLA-A*02 restricted peptides, positive wells among evaluable, Table 10B; for Wells (in vitro immunogenicity, positive wells): HLA class I peptides, Table 10A. From the text: In order to obtain information regarding the immunogenicity of the TUMAPs of the present invention, the inventors performed investigations using an in vitro T-cell priming assay based on repeated stimulations of CD8+ T cells with artificial antigen presenting cells (aAPCs) loaded with peptide/MHC complexes and anti-CD28 antibody.
In order to perform in vitro stimulations by artificial antigen presenting cells loaded with peptide-MHC complex (pMHC) and anti-CD28 antibody, the inventors first isolated CD8+ T cells from fresh HLA-A*02 leukapheresis products via positive selection using CD8 microbeads (Miltenyi Biotec, Bergisch-Gladbach, Germany) of healthy donors obtained from the University clinics Mannheim, Germany, after informed consent.
PBMCs and isolated CD8+ lymphocytes were incubated in T-cell medium (TCM) until use consisting of RPMI-Glutamax (Invitrogen, Karlsruhe, Germany) supplemented with 10% heat inactivated human AB serum (PAN-Biotech, Aidenbach, Germany), 100 U/ml Penicillin/100 μg/ml Streptomycin (Cambrex, Cologne, Germany), 1 mM sodium pyruvate (CC Pro, Oberdorla, Germany), 20 μg/ml Gentamycin (Cambrex). 2.5 ng/ml IL-7 (PromoCell, Heidelberg, Germany) and 10 U/ml IL-2 (Novartis Pharma, Nürnberg, Germany) were also added to the TCM at this step.
Generation of pMHC/anti-CD28 coated beads, T-cell stimulations and readout was performed in a highly defined in vitro system using four different pMHC molecules per stimulation condition and 8 different pMHC molecules per readout condition.
The purified co-stimulatory mouse IgG2a anti human CD28 Ab 9.3 (Jung et al., 1987) was chemically biotinylated using Sulfo-N-hydroxysuccinimidobiotin as recommended by the manufacturer (Perbio, Bonn, Germany). Beads used were 5.6 μm diameter streptavidin coated polystyrene particles (Bangs Laboratories, Illinois, USA).
800.000 beads/200 μl were coated in 96-well plates in the presence of 4×12.5 ng different biotin-pMHC, washed and 600 ng biotin anti-CD28 were added subsequently in a volume of 200 μl. Stimulations were initiated in 96-well plates by co-incubating 1×10^6 CD8+ T cells with 2×10^5 washed coated beads in 200 μl TCM supplemented with 5 ng/ml IL-12 (PromoCell) for 3 days at 37° C. Half of the medium was then exchanged by fresh TCM supplemented with 80 U/ml IL-2 and incubating was continued for 4 days at 37° C. This stimulation cycle was performed for a total of three times. For the pMHC multimer readout using 8 different pMHC molecules per condition, a two-dimensional combinatorial coding approach was used as previously described (Andersen et al., 2012) with minor modifications encompassing coupling to 5 different fluorochromes. Finally, multimeric analyses were performed by staining the cells with Live/dead near IR dye (Invitrogen, Karlsruhe, Germany), CD8-FITC antibody clone SK1 (BD, Heidelberg, Germany) and fluorescent pMHC multimers. For analysis, a BD LSRII SORP cytometer equipped with appropriate lasers and filters was used. Peptide specific cells were calculated as percentage of total CD8+ cells. Evaluation of multimeric analysis was done using the FlowJo software (Tree Star, Oregon, USA). In vitro priming of specific multimer+CD8+ lymphocytes was detected by comparing to negative control stimulations.

From patent publication US12084522B2, “Peptides, combination of peptides, and cell based medicaments for use in immunotherapy against urinary bladder cancer and other cancers” (Immatics Biotechnologies GmbH, priority 2016, dated 2024) come the findings set out here.

As for “4 (SLDVVNLLV; listed as Homo sapiens) [compound 4]”, in the test with HLA-A*02:01, the Peptide exchange result is on record as “++++ (>75% = ++++)”. The “Wells positive [%]” value in test [1] is reported as “+ (<20% = +)”. In the case of “5 (IQDPVIFYV; listed as Homo sapiens) [compound 5]”, the Peptide exchange entry in the test with HLA-A*02:01 was “++++ (>75% = ++++)”. For the same substance, in test [1], the “Wells positive [%]” value is recorded as “+++ (50%-69% = +++)”.

In the case of “6 (SIVDFLITA; listed as Homo sapiens) [compound 6]”, in the test with HLA-A*02:01, the Peptide exchange result is reported as “+++ (>50 = +++)”. In test [1], the “Wells positive [%]” value is reported as “+ (<20% = +)”. For “9 (SLVDARFQL; listed as Homo sapiens) [compound 9]” the same measures were “++++ (>75% = ++++)” and “+ (<20% = +)”. On the same counts, the results for “10 (GLWHGMFANV; listed as Homo sapiens) [compound 10]” are “++++ (>75% = ++++)” and “++ (20%-49% = ++)”. Regarding “14 (GLAGPVRGV; listed as Homo sapiens) [compound 14]”, the Peptide exchange result with HLA-A*02:01 is “+++ (>50 = +++)”. Also, the “Wells positive [%]” value in test [1] is “+ (<20% = +)”.

Take “15 (YLAPENGYLMEA; listed as Homo sapiens) [compound 15]”: the Peptide exchange entry in the test with HLA-A*02:01 is listed as “+++ (>50 = +++)”. In test [1], the “Wells positive [%]” value was “+ (<20% = +)”.

For “16 (ILGPQGNTI; listed as Homo sapiens) [compound 16]”, the Peptide exchange entry with HLA-A*02:01 is recorded as “+++ (>50 = +++)”. Besides, in test [1], the “Wells positive [%]” value was “+ (<20% = +)”. With “17 (RLSQLEGVNV; listed as Homo sapiens) [compound 17]”, in the test with HLA-A*02:01, the Peptide exchange entry is reported as “+++ (>50 = +++)”. Moreover, in test [1], the “Wells positive [%]” value is given as “+ (<20% = +)”. Regarding “23 (YTLSKTEFL; listed as Homo sapiens) [compound 23]”, in the test with HLA-A*02:01, the Peptide exchange entry was “++++ (>75% = ++++)”. Besides, the “Wells positive [%]” value in test [1] is “+ (<20% = +)”.

For the substance “24 (SLLGGITVV; listed as Homo sapiens) [compound 24]”, in the test with HLA-A*02:01, the Peptide exchange entry is “++++ (>75% = ++++)”. Moreover, the “Wells positive [%]” value in test [1] is recorded as “++ (20%-49% = ++)”. For “27 (STTNGGILTV; listed as Homo sapiens) [compound 27]”, the Peptide exchange entry with HLA-A*02:01 was “+++ (>50 = +++)”. Besides, in test [1], the “Wells positive [%]” value is recorded as “+ (<20% = +)”. On to “29 (ALSSPPPTV; listed as Homo sapiens) [compound 29]”, for which the Peptide exchange result with HLA-A*02:01 was “+++ (>50 = +++)”. In test [1], the “Wells positive [%]” value is “+ (<20% = +)”. For “30 (ILDISRSEV; listed as Homo sapiens) [compound 30]” the same measures were “+++ (>50 = +++)” and “++++ (>=70% = ++++)”. On the same counts, the results for “41 (FLDDGNQMLL; listed as Homo sapiens) [compound 41]” are “++++ (>75% = ++++)” and “+ (<20% = +)”. For the substance “155 (VLSSGLTAA; listed as Homo sapiens) [compound 155]”, the “Wells (in vitro immunogenicity, positive wells)” value in test [1] is “+ (<20% = +)”. Regarding “156 (KLVEFDFLGA; listed as Homo sapiens) [compound 156]”, in test [1], the “Wells (in vitro immunogenicity, positive wells)” value is on record as “+ (<20% = +)”. Take “159 (SLIEDLILL; listed as Homo sapiens) [compound 159]”: the “Wells (in vitro immunogenicity, positive wells)” value in test [1] is listed as “+ (<20% = +)”. Take “160 (SLLGGNIRL; listed as Homo sapiens) [compound 160]”: in test [1], the “Wells (in vitro immunogenicity, positive wells)” value is listed as “++ (20%-49% = ++)”. As for “162 (TLLAAEFLKQV; listed as Homo sapiens) [compound 162]”, the “Wells (in vitro immunogenicity, positive wells)” value in test [1] was “+ (<20% = +)”. For “164 (ALADLTGTVV; listed as Homo sapiens) [compound 164]”, the “Wells (in vitro immunogenicity, positive wells)” value in test [1] is reported as “+ (<20% = +)”.

With “167 (SLWGGDVVL; listed as Homo sapiens) [compound 167]”, the “Wells (in vitro immunogenicity, positive wells)” value in test [1] is listed as “++ (20%-49% = ++)”. As to “168 (LTAPPEALLMV; listed as Homo sapiens) [compound 168]”, in test [1], the “Wells (in vitro immunogenicity, positive wells)” value is listed as “+ (<20% = +)”. The same measure, in the same setting: the entry for “170 (GLIEIISNA; listed as Homo sapiens) [compound 170]” is “+ (<20% = +)”. The same measure, in the same setting: the entry for “172 (LLYGHTVTV; listed as Homo sapiens) [compound 172]” is “++ (20%-49% = ++)”; for “173 (FVFSFPVSV; listed as Homo sapiens) [compound 173]” it is “++ (20%-49% = ++)”. Regarding “176 (SMSGYDQVL; listed as Homo sapiens) [compound 176]”, the “Wells (in vitro immunogenicity, positive wells)” value in test [1] is reported as “+ (<20% = +)”. Turning to “177 (NLLQVLEKV; listed as Homo sapiens) [compound 177]”, the “Wells (in vitro immunogenicity, positive wells)” value in test [1] was “+ (<20% = +)”. For “178 (ALNEEAGRLLL; listed as Homo sapiens) [compound 178]”, the “Wells (in vitro immunogenicity, positive wells)” value in test [1] was “+ (<20% = +)”. In the case of “182 (YLAPFLRNV; listed as Homo sapiens) [compound 182]”, the “Wells (in vitro immunogenicity, positive wells)” value in test [1] is on record as “++ (20%-49% = ++)”. Take “184 (LMTKEISSV; listed as Homo sapiens) [compound 184]”: in test [1], the “Wells (in vitro immunogenicity, positive wells)” value is “+ (<20% = +)”. As to “186 (VLYPHEPTAV; listed as Homo sapiens) [compound 186]”, the “Wells (in vitro immunogenicity, positive wells)” value in test [1] is on record as “+ (<20% = +)”. As for “189 (ALLRTVVSV; listed as Homo sapiens) [compound 189]”, the “Wells (in vitro immunogenicity, positive wells)” value in test [1] was “+ (<20% = +)”.

Regarding “192 (ALNPADITV; listed as Homo sapiens) [compound 192]”, the “Wells (in vitro immunogenicity, positive wells)” value in test [1] is on record as “++ (20%-49% = ++)”. Turning to “193 (ALVQDLAKA; listed as Homo sapiens) [compound 193]”, the “Wells (in vitro immunogenicity, positive wells)” value in test [1] is given as “++ (20%-49% = ++)”. Consider “198 (NLIEKSIYL; listed as Homo sapiens) [compound 198]”, for which the “Wells (in vitro immunogenicity, positive wells)” value in test [1] is “+ (<20% = +)”. On the same count and under the same terms, then “200 (YLNVQVKEL; listed as Homo sapiens) [compound 200]”, with “+ (<20% = +)”; and “203 (FLIPYAIML; listed as Homo sapiens) [compound 203]”, with “+ (<20% = +)”; and “204 (GVYDGEEHSV; listed as Homo sapiens) [compound 204]”, with “+ (<20% = +)”. For “205 (KIVDFSYSV; listed as Homo sapiens) [compound 205]”, in test [1], the “Wells (in vitro immunogenicity, positive wells)” value is “++ (20%-49% = ++)”.
